Data from article PMC6901109 (Bioorganic & medicinal chemistry letters, 2019).

Columns and labels:
HLM half-life = format: in vitro ADME; conditions: human, liver microsomes
Cryptococcus spp. = assay: Antifungal activity against Cryptococcus spp.; format: cell-based
HepG2 = HepG2 viability; format: cell-based; conditions: at a concentration of 3 μM
PigW = target: T1, PigW (Homo sapiens, UniProt Q7Z7B1); assay: PigW assay; format: biochemical
T1 sequence (Q7Z7B1 1-504): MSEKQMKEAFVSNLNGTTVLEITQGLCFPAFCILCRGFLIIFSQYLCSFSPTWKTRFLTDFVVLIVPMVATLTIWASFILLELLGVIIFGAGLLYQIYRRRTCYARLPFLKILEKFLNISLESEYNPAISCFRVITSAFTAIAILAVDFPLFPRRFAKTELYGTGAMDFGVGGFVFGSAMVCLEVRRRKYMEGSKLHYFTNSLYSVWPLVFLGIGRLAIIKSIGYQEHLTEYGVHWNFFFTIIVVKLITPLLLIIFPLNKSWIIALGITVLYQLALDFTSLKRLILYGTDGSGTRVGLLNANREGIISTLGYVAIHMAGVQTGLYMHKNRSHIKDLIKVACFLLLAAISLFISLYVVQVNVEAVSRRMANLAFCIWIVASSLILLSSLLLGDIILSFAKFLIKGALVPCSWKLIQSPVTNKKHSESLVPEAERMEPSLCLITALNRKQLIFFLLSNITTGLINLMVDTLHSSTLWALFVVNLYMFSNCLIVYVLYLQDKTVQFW

## Nc1ncccc1-c1cc(Cc2ccc(Cc3ccco3)cc2)no1 [Compound 8d]
HLM half-life
  half-life: ~3 min

## Nc1ncccc1-c1cc(Cc2ccc(Cc3ccc(F)o3)cc2)no1 [Compound 8e]
HLM half-life
  half-life: 14 min

## Nc1ncccc1-c1cc(Cc2ccc(CNCc3ccn[nH]3)cc2)no1 [Compound 10b]
Cryptococcus spp.
  antifungal activity (in words): inactive

## Cc1nccc(NCc2ccc(Cc3cc(-c4cccnc4N)on3)cc2)n1 [Compound 11b]
Cryptococcus spp.
  antifungal activity (in words): inactive

## Nc1ncccc1-c1cc(Cc2ccc(Oc3ccccn3)cc2)no1 [Compound 12b]
HepG2
  HepG2 cytotoxicity (in words): significant liability

## Cc1occc1COc1ccc(Cc2cc(-c3cccnc3N)on2)cn1 [Compound 13k]
Cryptococcus spp.; ortho-methyl group, vs 13j
  fold weaker antifungal activity compared to the unsubstituted analog 13j: about 100 fold

## Nc1ncccc1-c1cc(Cc2ccc(OCc3cccc(Cl)c3)nc2)no1 [Compound 13l]
HLM half-life
  half-life: 68.2 min
PigW
  activity against the human homolog PigW (in words): significant activity
